Reference: paper PMC10529594, “Strasseriolides display in vitro and in vivo activity against trypanosomal parasites and cause morphological and size defects in Trypanosoma cruzi” (PLOS Neglected Tropical Diseases, 2023)
Where “and” joins values, the source holds several entries; their conditions need not be identical. Identical values can stand only once.

Experiments:
[1] = tested on: L. donovani MHOM/ET/67/HU3 transgenic intracellular amastigotes; assay: L. donovani intracellular amastigote assay (luciferase, THP-1 macrophages); type: cell-based; details: Leishmania donovani, THP-1, 72 h, read-out: EC50 L. donovani
Experimental: Leishmania donovani MHOM/ET/67/HU3 cells with the luciferase gene integrated into the parasite genome was obtained as described. Parasites were grown at 28°C in RPMI 1640-modified medium supplemented with 20% heat-inactivated fetal bovine serum (iFBS, Invitrogen) with […] of hygromycin B.
THP-1 cells were differentiated into macrophages with 20 ng/mL of PMA in a 96-well plate at 3 × 10^4 cells per well for 48 hours followed by 24 hours of culture in fresh medium. Cells were then infected with transgenic stationary L. donovani MHOM/ET/67/HU3 promastigotes expressing the luciferase gene at a multiplicity of infection (MOI) of 10. A volume of 100 μL of culture media containing the test compounds was added to each well and the plates were incubated at 37°C for 72 hours. Luminescence was measured using the Promega kit luciferase assay system.

[2] = tested on: T. cruzi Tulahuen C4 epimastigotes; assay: T. cruzi epimastigotes growth inhibition assay (resazurin); type: cell-based, Trypanosoma cruzi; details: 72 h
Experimental: (§1) The Trypanosoma cruzi Tulahuen strain used is a genetically modified strain that expresses the Escherichia coli β-galactosidase gene, lacZ [31]. It was kindly supplied by Marcel Kaiser (Swiss Tropical and Public Health Institute). The T. cruzi Tulahuen C4 strain was cultured in RPMI-1640 supplemented with 10% inactivated FBS (iFBS), 1.7 mM L-glutamine, 100 U/mL penicillin, and […] at 37°C and 5% CO2. L6 rat skeletal muscle cells were purchased from ATCC (reference CRL-1458) and used as host cells for infection with transgenic T. cruzi trypomastigotes. Epimastigotes were obtained by differentiation in LIT medium with 10% iFBS at 28°C from trypomastigote forms.
A resazurin-based assay was set up in 96-well microplates containing 10 μL of test compound at concentrations ranging from 0.39 to 200 μM and log phase parasites seeded at 2 × 10^5 cells per well in a final volume of 100 μL. Maximum DMSO percentage in the well was 0.2%. Positive and negative growth controls were included. Following 72 hour incubation at 28°C with orbital shaking, 10 μL of resazurin solution were added to each well and the plates were returned to the incubator for 4 hours. Resazurin reduction was correlated to cell viability by fluorescence measurement with excitation and emission wavelength bands centered at 550 and 590 nm, respectively, in a Tecan Infinite 200 microplate reader.

[3] = tested on: T. cruzi Tulahuen C4 intracellular amastigotes; assay: β-D-galactosidase transgenic T. cruzi assay (intracellular amastigotes in L6 cells, CPRG); type: cell-based; details: Trypanosoma cruzi
Experimental: as §1
A Thermo Scientific Multidrop Combi dispenser was used to dispense 55 μL of T. cruzi infected L6 cells (2 ×10^3 cells per well) into 384-well Corning assay plates already containing 5 μL of each compound at concentrations ranging from 0.0015 to 50 μM and controls. The plates were incubated at 37°C for 96 hours upon which 15 μL of lysis buffer (0.5 mM CPRG, 0.5% NP40) were added to each well and further incubated for 4 hours in the dark. Absorbance at 585 nm was measured in a Perkin Elmer Envision plate reader.

T. cruzi epimastigotes = assay: FACS analysis of T. cruzi epimastigotes (cell cycle, size and complexity); type: cell-based, Trypanosoma cruzi; details: for % Cells G1, Average / % Cells G2/M, Average / % Cells S, Average / % Cells sub-G1, Average / % Cells G1, individual replicates / % Cells G2/M, individual replicates / % Cells S, individual replicates / % Cells post G2/M, individual replicates / % Cells sub-G1, individual replicates: 72-hour drug exposure, FACS with PI staining; for Foward Scatter (FSC) - Geometric Mean, single experiment / Foward Scatter (FSC) - Geometric Mean, Average / size reduction with respect to untreated parasites: 72 h
Experimental: FACS analysis was used to study cell cycle progression and cellular parameters such as size and complexity. 5 × 10^6 T. cruzi epimastigotes were harvested by centrifugation at 1,000×g and 4°C after 72 hours of incubation in a 6-well plate in the presence and in absence of test compounds. Pellets of cells were washed with 5 mL of PBS and fixed in a solution of 70% ice-cold ethanol/PBS at -20°C overnight. Cells were then collected by centrifugation, washed with PBS and stained with 40 μg/mL of propidium iodide in PBS containing 10 μg/mL of RNase A at 37°C for 30 minutes. Fluorescence was monitored with a Becton Dickinson FACSCalibur using BD CellQuest Pro version 4.0.2 software with a total of 10,000 events acquired for each sample. The different cell populations as well as mean cellular parameters were determined by FlowJo software.

L6 rat myoblast cells = assay: Cytotoxicity evaluation in L6 cells (resazurin); type: cell-based; details: Rattus norvegicus, Myoblast; 72 h, resazurin; read-out: EC50 L6
Experimental: One hundred microliters of supplemented RPMI 1640 medium containing the compounds and controls were added to L6 rat myoblast cells previously seeded (4,000 cells per well) in a 96-well microplate. After 72 hours at 37°C the viable cell number was determined by resazurin reduction. 20 μL of resazurin at 0.11 mg/mL in PBS 1X were added to each well and incubated in the dark for 2 hours at 37°C. Cell viability was estimated by measuring the final fluorescence at 570–590 nm in a Tecan Infinite F200 plate reader.

[4] = tested on: human macrophage THP-1 cells; assay: Cytotoxicity in THP-1 macrophages (MTT); type: cell-based
Experimental: Cellular toxicity of compounds in the human macrophage host TPH-1 cell line was determined using the colorimetric MTT-based assay as previously described.
THP-1 cells were seeded at 3 × 10^4 cells/well in 96-well plates and were differentiated to macrophages with 20 ng/ml of PMA treatment for 48 h followed by 24 h incubation in fresh medium. Strasseriolides were added at increasing concentrations up to 50 μM and cells were further incubated at 37°C for 72 h. 10 μL of MTT (5 mg/mL in PBS) were added to each well, and plates were incubated for an additional period of 8 h at 37°C. Formazan crystals were dissolved by adding 50 μL of 20% SDS and absorbance was read at 595 nm using a microplate reader.

C/C1=C\[C@H](C)C(=O)C[C@@H](O)/C(C)=C/[C@H](C)C[C@@H](C)CC[C@@H]([C@@H](C)C(=O)O)OC(=O)[C@@H](C)C1 [Strasseriolide C, strasseriolide C]
EC50 [1]: 6.63 µM
EC30, epimastigotes ([2]; from dose-response curve): 28 µM
EC70, epimastigotes ([2]; from dose-response curve): 47 µM
EC50 ([2]; Trypanosoma cruzi, TULAHUEN, Tulahuen C4, 72 h, resazurin): 32.4 µM
inhibition at 0.00152588 µM ([3]; TULAHUEN, L6, T. cruzi amastigotes, 96-hour treatment, 0.00152588 µM, read-out: Growth inhibition (%) Average): 3.17%
inhibition at 0.00305176 µM ([3]; TULAHUEN, L6, T. cruzi amastigotes, 96-hour treatment, 0.00305176 µM, read-out: Growth inhibition (%) Average): 3.11%
inhibition at 0.00610352 µM ([3]; TULAHUEN, L6, T. cruzi amastigotes, 96-hour treatment, 0.00610352 µM, read-out: Growth inhibition (%) Average): 4.62%
inhibition at 0.012207 µM ([3]; TULAHUEN, L6, T. cruzi amastigotes, 96-hour treatment, 0.012207 µM, read-out: Growth inhibition (%) Average): 9.25%
inhibition at 0.0244141 µM ([3]; TULAHUEN, L6, T. cruzi amastigotes, 96-hour treatment, 0.0244141 µM, read-out: Growth inhibition (%) Average): 4.92%
inhibition at 0.0488281 µM ([3]; TULAHUEN, L6, T. cruzi amastigotes, 96-hour treatment, 0.0488281 µM, read-out: Growth inhibition (%) Average): 5.95%
inhibition at 0.0976562 µM ([3]; TULAHUEN, L6, T. cruzi amastigotes, 96-hour treatment, 0.0976562 µM, read-out: Growth inhibition (%) Average): 2.24%
inhibition at 0.195312 µM ([3]; TULAHUEN, L6, T. cruzi amastigotes, 96-hour treatment, 0.195312 µM, read-out: Growth inhibition (%) Average): 5.83%
inhibition at 0.390625 µM ([3]; TULAHUEN, L6, T. cruzi amastigotes, 96-hour treatment, 0.390625 µM, read-out: Growth inhibition (%) Average): 4.94%
inhibition at 0.78125 µM ([3]; TULAHUEN, L6, T. cruzi amastigotes, 96-hour treatment, 0.78125 µM, read-out: Growth inhibition (%) Average): 4.24%
inhibition at 1.5625 µM ([3]; TULAHUEN, L6, T. cruzi amastigotes, 96-hour treatment, 1.5625 µM, read-out: Growth inhibition (%) Average): 15.3%
inhibition at 3.125 µM ([3]; TULAHUEN, L6, T. cruzi amastigotes, 96-hour treatment, 3.125 µM, read-out: Growth inhibition (%) Average): 61.8%
inhibition at 6.25 µM ([3]; TULAHUEN, L6, T. cruzi amastigotes, 96-hour treatment, 6.25 µM, read-out: Growth inhibition (%) Average): 96%
inhibition at 12.5 µM ([3]; TULAHUEN, L6, T. cruzi amastigotes, 96-hour treatment, 12.5 µM, read-out: Growth inhibition (%) Average): 110%
inhibition at 25 µM ([3]; TULAHUEN, L6, T. cruzi amastigotes, 96-hour treatment, 25 µM, read-out: Growth inhibition (%) Average): 112%
inhibition at 50 µM ([3]; TULAHUEN, L6, T. cruzi amastigotes, 96-hour treatment, 50 µM, read-out: Growth inhibition (%) Average): 115%
EC50 ([3]; Tulahuen C4 in L6 cells, 96 h, CPRG): 3.08 µM
% Cells G1, Average (T. cruzi epimastigotes; EC30, average): 50.2633%
% Cells G2/M, Average (T. cruzi epimastigotes; EC30, average): 31.3463%
% Cells S, Average (T. cruzi epimastigotes; EC30, average): 16.5971%
% Cells sub-G1, Average (T. cruzi epimastigotes; EC30, average): 3.151%
% Cells G1, individual replicates (T. cruzi epimastigotes; EC30, single replicates): 52.1473% and 48.3792%
% Cells G2/M, individual replicates (T. cruzi epimastigotes; EC30, single replicates): 31.009% and 31.6835%
% Cells S, individual replicates (T. cruzi epimastigotes; EC30, single replicates): 14.5117% and 18.6825%
% Cells post G2/M, individual replicates (T. cruzi epimastigotes; EC30, single replicates): -0.5484% and -2.167%
% Cells sub-G1, individual replicates (T. cruzi epimastigotes; EC30, single replicates): 2.8804% and 3.422%
% Cells G1, Average (T. cruzi epimastigotes; EC70, average): 52.4319%
% Cells G2/M, Average (T. cruzi epimastigotes; EC70, average): 31.1794%
% Cells S, Average (T. cruzi epimastigotes; EC70, average): 14.7538%
% Cells sub-G1, Average (T. cruzi epimastigotes; EC70, average): 3.07%
% Cells G1, individual replicates (T. cruzi epimastigotes; EC70, single replicates): 54.5779% and 50.2858%
% Cells G2/M, individual replicates (T. cruzi epimastigotes; EC70, single replicates): 30.5655% and 31.7933%
% Cells S, individual replicates (T. cruzi epimastigotes; EC70, single replicates): 10.63% and 18.8776%
% Cells post G2/M, individual replicates (T. cruzi epimastigotes; EC70, single replicates): -0.9732% and -1.896%
% Cells sub-G1, individual replicates (T. cruzi epimastigotes; EC70, single replicates): 5.2% and 0.9392%
Foward Scatter (FSC) - Geometric Mean, single experiment (T. cruzi epimastigotes; EC30): 81.2 and 80.4
Foward Scatter (FSC) - Geometric Mean, Average (T. cruzi epimastigotes; EC30, control 96.65): 80.8
Foward Scatter (FSC) - Geometric Mean, single experiment (T. cruzi epimastigotes; EC70): 72.5 and 74.3
Foward Scatter (FSC) - Geometric Mean, Average (T. cruzi epimastigotes; EC70, control 96.65): 73.4
size reduction with respect to untreated parasites (T. cruzi epimastigotes; at EC30): 16%
size reduction with respect to untreated parasites (T. cruzi epimastigotes; at EC70): 22%
EC50 (L6 rat myoblast cells): > 50 µM
Selectivity index intracellular L. donovani versus THP-1 cells [4]: 68
EC50 ([4]; Homo sapiens, THP-1, 72 h, MTT, read-out: EC50 THP-1): 448 µM
